Assay results as given in article PMC10787698, “Discovery and biocatalytic characterization of opine dehydrogenases by metagenome mining” (Applied Microbiology and Biotechnology, 2024).
Where a chain is given by its changes, count along the chain named. Numbers in names are those of the source. Where two headings read alike, the source gives them in different places. One block for each molecule: values may come before it.

Tests used:
mODH-48 = test system: T1, mODH-48; experiment: NAD(P)H absorbance at […] nm, Michaelis-Menten; format: biochemical, hot spring metagenome; settings: pyruvate 10 mM, 100 mM sodium phosphate pH 8.0, 30 °C
T1 construct: N-terminal His-tag, pET14b, E. coli BL21(DE3); codon-optimised synthetic gene; source reads SRR16606022; one of 11 TPA records BK063522-BK063532 (not assigned singly); identical to an obsolete UniParc entry

mODH-45 = test system: T2, mODH-45; experiment: NAD(P)H absorbance at […] nm, Michaelis-Menten; format: biochemical, hot spring metagenome; settings: pyruvate 10 mM, 100 mM sodium phosphate pH 8.0, 30 °C
T2 construct: N-terminal His-tag, pET14b, E. coli BL21(DE3); codon-optimised synthetic gene; source reads SRR16606022; one of 11 TPA records BK063522-BK063532 (not assigned singly)

mODH-582 [1] = test system: T3, mODH-582; experiment: NAD(P)H absorbance at […] nm, Michaelis-Menten; format: biochemical, hot spring metagenome; settings: pyruvate 10 mM, 100 mM sodium phosphate pH 8.0, 30 °C
T3 construct: N-terminal His-tag, pET14b, E. coli BL21(DE3); codon-optimised synthetic gene; source reads SRR16606022; one of 11 TPA records BK063522-BK063532 (not assigned singly)

mODH-47 = test system: T4, mODH-47; experiment: NAD(P)H absorbance at […] nm, Michaelis-Menten; format: biochemical, hot spring metagenome; settings: pyruvate 10 mM, 100 mM sodium phosphate pH 8.0, 30 °C
T4 construct: N-terminal His-tag, pET14b, E. coli BL21(DE3); codon-optimised synthetic gene; source reads SRR16606022; one of 11 TPA records BK063522-BK063532 (not assigned singly)

mODH-55 = test system: T5, mODH-55; experiment: NAD(P)H absorbance at […] nm, Michaelis-Menten; format: biochemical, hot spring metagenome; settings: pyruvate 10 mM, 100 mM sodium phosphate pH 8.0, 30 °C
T5 construct: N-terminal His-tag, pET14b, E. coli BL21(DE3); codon-optimised synthetic gene; source reads SRR16606022; one of 11 TPA records BK063522-BK063532 (not assigned singly)

mODH-49 = test system: T6, mODH-49; experiment: NAD(P)H absorbance at […] nm, Michaelis-Menten; format: biochemical, hot spring metagenome; settings: pyruvate 10 mM, 100 mM sodium phosphate pH 8.0, 30 °C
T6 construct: N-terminal His-tag, pET14b, E. coli BL21(DE3); codon-optimised synthetic gene; source reads SRR16606022; one of 11 TPA records BK063522-BK063532 (not assigned singly)

mODH-582 [2] = test system: T3, mODH-582; experiment: NAD(P)H absorbance at […] nm, Michaelis-Menten; format: biochemical, hot spring metagenome; settings: pyruvate 10 mM, NAD(P)H 0.2 mM, 100 mM sodium phosphate pH 8.0, 30 °C; read-out: L-Phe / KM
[3] = substrate: NC(=O)C1=CN([C@@H]2O[C@H](COP(=O)(O)OP(=O)(O)OC[C@H]3O[C@@H](n4cnc5c(N)ncnc54)[C@H](O)[C@@H]3O)[C@@H](O)[C@H]2O)C=CC1; experiment: purified protein, by the assay type; design: Michaelis-Menten kinetics of reductive amination with pyruvate, NAD(P)H consumption by absorbance at 340 nm, 30 °C, pH 8.0
Description: (§1) Enzyme activities were measured spectrophotometrically at 30 °C in 96-well half-area plates in a Thermo Scientific™ Multiskan SkyHigh Microplate Spectrophotometer (Thermo Fisher Scientific Inc., Waltham, MA, USA). Standard assays were carried out by using 15 mM amino acid and 0.2 mM NAD(P)H in 100 mM sodium phosphate buffer (pH = 8.0). The reaction was started by the addition of 10 mM pyruvate. The decrease in absorbance was monitored at 340 nm. Initial velocities (v0) were calculated from the linear section of the plots using an NAD(P)H calibration. For the determination of kinetic constants, amino acid concentrations were varied between 1 and 30 mM, while cofactor concentrations were between 0.04 and 0.5 mM. Depending on the specific activities of each enzyme, enzyme concentrations were fixed between 0.015 and 1.5 µM (Tables S9-S12). Kinetic constants were determined from the Michaelis–Menten plots using GraphPad Prism software (Tables S9-S12, Figures S15-S18). Heat stability experiments were carried out by incubating the enzymes at 40, 50, or 60 °C for 1 h before measuring their specific activities. Nine selected mODH genes as well as the coding sequence of ArODH were codon optimized for E. coli, synthesized by Genescript and cloned into pET14b vector using NdeI and BamHI cloning sites resulting in N-terminal His-tag proteins (for protein and nucleotide sequences see Table S2). Plasmids were transformed into E.coli BL21(DE3) chemically competent cells, and 5 mL overnight cultures were grown in Luria–Bertani (LB) medium supplemented with carbenicillin. Then, 4 mL was added to 500 mL fresh LB medium. The culture was grown at 37 °C to OD = 0.5 and induced by addition of 0.5 mM IPTG. The flasks were then incubated in a shaker at 18 °C overnight. The cells were harvested by centrifugation at 4000 rpm, 4 °C for 30 min. The pellets were resuspended in lysis buffer (50 mM Tris pH = 8.5, 300 mM NaCl, 1 mM benzamidine, 2 mM [compound left out] [compound left out], 1 mM Tris(2-carboxyethyl)phosphine (TCEP), DNase) and lysed by ultrasonication. The suspension was centrifuged at 11,000 rpm, 4 °C for 30 min. The supernatant was loaded onto equilibrated Ni–NTA column and washed with 15 mM imidazole in lysis buffer. The bound protein was eluted with 250 mM imidazole in lysis buffer and then dialyzed in 50 mM Tris pH = 8.5. The resulting solution was aliquoted after addition of 10% glycerol and then stored at − 20 °C until further use. Total protein concentration was determined based on absorption at 280 nm measured on a NanoDrop spectrophotometer. With this method, six mODHs and ArODH could be purified (see Table S2). Three mODHs were not expressed in soluble form in this experimental setting.

[4] = substrate: N[C@@H](Cc1ccccc1)C(=O)O; experiment: purified protein, by the assay type; design: Michaelis-Menten kinetics of reductive amination with pyruvate, NAD(P)H consumption by absorbance at 340 nm, 30 °C, pH 8.0
Description: as §1

purified protein [5] = substrate: N[C@@H](Cc1ccccc1)C(=O)O; experiment: purified protein; format: biochemical, Arthrobacter sp. 1C; settings: pyruvate 10 mM, NAD(P)H 0.2 mM, 100 mM sodium phosphate pH 8.0, 30 °C
purified protein [6] = substrate: N[C@@H](CC(=O)O)C(=O)O; experiment: purified protein; settings: pyruvate 10 mM, NAD(P)H 0.2 mM, 100 mM sodium phosphate pH 8.0, 30 °C
[7] = NAD(P)H 0.2 mM, read-out: L-Asp / KM
[8] = L-Asp 15 mM, read-out: NADPH / KM
[9] = L-Asp 15 mM, read-out: NADH / KM

Molecule: N[C@@H](Cc1ccccc1)C(=O)O [L-Phe]
Km (mODH-582 [2]): 32700 ± 4700 µM

B1: ArODH (Arthrobacter sp. 1C) (protein)
chain: MIESKTYAVLGLGNGGHAFAAYLALKGQSVLAWDIDAQRIKEIQDRGAIIAEGPGLAGTAHPDLLTSDIGLAVKDADVILIVVPAIHHASIAANIASYISEGQLIILNPGATGGALEFRKILRENGAPEVTIGETSSMLFTCRSERPGQVTVNAIKGAMDFACLPAAKAGWALEQIGSVLPQYVAVENVLHTSLTNVNAVMHPLPTLLNAARCESGTPFQYYLEGITPSVGSLAEKVDAERIAIAKAFDLNVPSVCEWYKESYGQSPATIYEAVQGNPAYRGIAGPINLNTRYFFEDVSTGLVPLSELGRAVNVPTPLIDAVLDLISSLIDTDFRKEGRTLEKLGLSGLTAAGIRSAVE
notes: N-terminal His-tag, pET14b, E. coli BL21(DE3); codon-optimised synthetic gene
Km [3]: 292 ± 77 µM | Vmax [3]: 0.11 µmol/min | kcat [3]: 1240 ± 174 s⁻¹ | Km [4]: 18100 ± 4500 µM | Vmax [4]: 0.001 µmol/min | kcat [4]: 11.1 ± 1.5 s⁻¹ | Km (purified protein [5]): 1400 ± 500 µM | kcat (purified protein [5]): 861 ± 70 s⁻¹ | kcat/Km (purified protein [5]): 630000 M⁻¹ s⁻¹

B2: ArODH (Arthrobacter sp. 1C; A111R/N198G) (protein)
chain: B1 chain with A111R, N198G
Km (purified protein [6]): 58300 ± 19600 µM | kcat (purified protein [6]): 2.8 s⁻¹ | kcat/Km (purified protein [6]): 50 M⁻¹ s⁻¹

Now from value to molecule:

Km (mODH-48; [7]): 500 ± 100 µM | Km (mODH-45; [7]): 21500 ± 5300 µM | Km (mODH-582 [1]; [7]): 24800 ± 4600 µM | Km (mODH-47; [7]): 1200 ± 300 µM | Km (mODH-55; [7]): 1500 ± 200 µM | Km (mODH-49; [7]): 15000 ± 2300 µM
Molecule: N[C@@H](CC(=O)O)C(=O)O [compound 3, L-Asp]

Km (mODH-48; [8]): 17 ± 7 µM | Km (mODH-45; [8]): 118 ± 24 µM | Km (mODH-582 [1]; [8]): 318 ± 112 µM | Km (mODH-47; [8]): 93 ± 21 µM | Km (mODH-55; [8]): 68 ± 13 µM | Km (mODH-49; [8]): 85 ± 17 µM
Molecule: NC(=O)C1=CN([C@@H]2O[C@H](COP(=O)(O)OP(=O)(O)OC[C@H]3O[C@@H](n4cnc5c(N)ncnc54)[C@H](OP(=O)(O)O)[C@@H]3O)[C@@H](O)[C@H]2O)C=CC1 [NADPH]

Km (mODH-48; [9]): 93 ± 15 µM | Km (mODH-45; [9]): 447 ± 64 µM | Km (mODH-582 [1]; [9]): 29 ± 11 µM | Km (mODH-55; [9]): 442 ± 63 µM | Km (mODH-49; [9]): 1830 ± 423 µM
Molecule: NC(=O)C1=CN([C@@H]2O[C@H](COP(=O)(O)OP(=O)(O)OC[C@H]3O[C@@H](n4cnc5c(N)ncnc54)[C@H](O)[C@@H]3O)[C@@H](O)[C@H]2O)C=CC1 [NADH]
